According to US20140193827A1 (TEVA PHARMACEUTICAL INDUSTRIES, LTD., priority 2013, published 2014):

Tested on: GA-primed murine splenocytes
Assay: ANOVA-based pattern identification method
Type: cell-based, mouse
Source text: We sought to identify probes matching specific patterns of expression across experimental conditions using a technique that referred to as the ANOVA-based Pattern Identification Method.
To carry out the analysis in a general manner, we computed the 6 p-values required to do pairwise comparisons of all 4 conditions for all probes using the ANOVA1 function in MATLAB. We then identified sets of probes matching the desired pattern. In the example above, probes were identified as being only affected by PG if their 6 pairwise comparison pvalues matched the following pattern (pGA-PG<0.05, pPG-reference standard<0.05, pPG-Medium<0.05, pGAMedium>0.05, pGA-reference standard>0.05, preference standard-Medium>0.05).

[1] = DOWN IN generic ONLY, group mean

Work on glatiramer acetate [GA] yielded a PARP11 expression [1] of 5.609, a PAX6 expression [1] of 5.641 and a PCSK2 expression [1] of 5.653. It also gave a PDK2 expression [1] of 5.937, a PHIP expression [1] of 8.192 and a PMS1 expression [1] of 5.806. It also gave a PRICKLE2 expression [1] of 5.859, a PTP4A2 expression [1] of 8.952 and a PTPN22 expression [1] of 5.804. For the same substance, the R3HDM1 expression [1] was 6.229, the RAB4A expression [1] was 6.851 and the RAB6B expression [1] was 5.767. It also gave an RAB27A expression [1] of 9.622, an RBM18 expression [1] of 7.292 and an RDH1 expression [1] of 5.682. For the same substance, the RGS19 expression [1] was 6.584, the RHBDF2 expression [1] was 6.336 and the RNF17 expression [1] was 5.538. The RNF150 expression [1] was 5.93, the RPL32 expression [1] was 13.81 and the RTN3 expression [1] was 5.897. The RgenericRIP1 expression [1] was 5.935, the SCNN1B expression [1] was 5.616 and the SEC1 expression [1] was 5.75. It also gave an SEMA3E expression [1] of 5.601, an SH3BP2 expression [1] of 10.95 and an SOX2 expression [1] of 5.674. It also gave an SPCS2 expression [1] of 5.97, an SPDYB expression [1] of 5.641 and an SPN expression [1] of 5.889. The SPRR2K expression [1] was 5.662, the STAT4 expression [1] was 5.836 and the SVNGR4 expression [1] was 5.647. For the same substance, the SYT10 expression [1] was 5.717, the TATDN3 expression [1] was 5.694 and the TCFAP2C expression [1] was 5.821. For the same substance, the TDH expression [1] was 5.601, the TMEFF2 expression [1] was 5.65 and the TMEM146 expression [1] was 6.132. The TMPO expression [1] was 8.533, the TRPM1 expression [1] was 5.694 and the TRPV3 expression [1] was 5.597. It also gave a TSC1 expression [1] of 5.984, a TSSC1 expression [1] of 7.729 and a TYKI expression [1] of 7.673. The UGDH expression [1] was 5.86, the UGT2A1 expression [1] was 5.61 and the UTX expression [1] was 9.817. It also gave a V1RD9 expression [1] of 5.697, a ZAP70 expression [1] of 7.106 and a ZBTB44 expression [1] of 5.642. It also gave a ZCCHC11 expression [1] of 5.935, a ZFP120 expression [1] of 5.536 and a ZFP212 expression [1] of 6.401. It also gave a ZSCAN2 expression [1] of 5.813, a control_ILMN_1378612 expression [1] of 5.7 and a control_ILMN_1378679 expression [1] of 5.604. It also gave a control_ILMN_1378774 expression [1] of 5.707, a control_ILMN_1378775 expression [1] of 5.662 and a control_ILMN_1379152 expression [1] of 5.629. The control_ILMN_1379205 expression [1] was 5.72, the genericC expression [1] was 5.676 and the USP47 expression (DOWN IN generic ONLY, group mean, first USP47 line) was 6.068. The USP47 expression (DOWN IN generic ONLY, group mean, second USP47 line) was 6.377, the 1700025G04RIK expression level (UP IN GA AND REF ONLY) was 7.268 and the 1700027N10RIK expression level (UP IN GA AND REF ONLY) was 6.448. The 1810013L24RIK expression level (UP IN GA AND REF ONLY) was 7.658, the 2310016C16RIK expression level (UP IN GA AND REF ONLY) was 5.823 and the 2500002A22RIK expression level (UP IN GA AND REF ONLY) was 6.674. The 2610017G09RIK expression level (UP IN GA AND REF ONLY) was 5.839, the 2810008M24RIK expression level (UP IN GA AND REF ONLY) was 9.714 and the 2810410P22RIK expression level (UP IN GA AND REF ONLY) was 7.979. For the same substance, the 3202002H23RIK expression level (UP IN GA AND REF ONLY) was 6.527, the 4930404F20RIK expression level (UP IN GA AND REF ONLY) was 6.759 and the 4930422G04RIK expression level (UP IN GA AND REF ONLY) was 5.79. For the same substance, the 4930539E08RIK expression level (UP IN GA AND REF ONLY) was 6.255, the 4932413O14RIK expression level (UP IN GA AND REF ONLY) was 5.732 and the 5830457O10RIK expression level (UP IN GA AND REF ONLY) was 6.825. The 8030402P03RIK expression level (UP IN GA AND REF ONLY) was 7.776, the 9430077D24RIK expression level (UP IN GA AND REF ONLY) was 7.091 and the A630098G22RIK expression level (UP IN GA AND REF ONLY) was 7.124. The A830083H19RIK expression level (UP IN GA AND REF ONLY) was 7.635, the A930014D08RIK expression level (UP IN GA AND REF ONLY) was 5.703 and the ACTN4 expression level (UP IN GA AND REF ONLY) was 6.609. For the same substance, the ALS2CL expression level (UP IN GA AND REF ONLY) was 7.393, the AP1B1 expression level (UP IN GA AND REF ONLY) was 10.95 and the ARHGAP25 expression level (UP IN GA AND REF ONLY) was 10.16. The ARL1 expression level (UP IN GA AND REF ONLY) was 9.913, the ARL5A expression level (UP IN GA AND REF ONLY) was 8.028 and the BAT2D expression level (UP IN GA AND REF ONLY) was 5.932. The BAZ1B expression level (UP IN GA AND REF ONLY) was 5.676, the BCL11B expression level (UP IN GA AND REF ONLY) was 7.609 and the C130079K02RIK expression level (UP IN GA AND REF ONLY) was 7.532. For the same substance, the C920025C15RIK expression level (UP IN GA AND REF ONLY) was 6.929, the CBFB expression level (UP IN GA AND REF ONLY) was 6.648 and the CCR4 expression level (UP IN GA AND REF ONLY) was 5.821. For the same substance, the CD226 expression level (UP IN GA AND REF ONLY) was 6.995, the CHIC2 expression level (UP IN GA AND REF ONLY) was 8.484 and the CLCN3 expression level (UP IN GA AND REF ONLY) was 8.431. The COX7A1 expression level (UP IN GA AND REF ONLY) was 7.161, the CSF1 expression level (UP IN GA AND REF ONLY) was 5.383 and the CXCR6 expression level (UP IN GA AND REF ONLY) was 6.834. The CYB5 expression level (UP IN GA AND REF ONLY) was 11.21, the D4ERTD22E expression level (UP IN GA AND REF ONLY) was 11.37 and the D6WSU163E expression level (UP IN GA AND REF ONLY) was 6.582. The D230021E06RIK expression level (UP IN GA AND REF ONLY) was 7.605, the D630011N09RIK expression level (UP IN GA AND REF ONLY) was 5.625 and the D630022O22RIK expression level (UP IN GA AND REF ONLY) was 6.33. It also gave a DCK expression level (UP IN GA AND REF ONLY) of 6.716, a DCUN1D5 expression level (UP IN GA AND REF ONLY) of 9.535 and a DHX32 expression level (UP IN GA AND REF ONLY) of 8.979. The DMBT1 expression level (UP IN GA AND REF ONLY) was 5.787, the DTYMK expression level (UP IN GA AND REF ONLY) was 10.17 and the EG386506 expression level (UP IN GA AND REF ONLY) was 5.743. It also gave an EG666756 expression level (UP IN GA AND REF ONLY) of 10.78, an EIF3B expression level (UP IN GA AND REF ONLY) of 6.383 and an EIF4E3 expression level (UP IN GA AND REF ONLY) of 8.882. For the same substance, the ELAC2 expression level (UP IN GA AND REF ONLY) was 6.351, the ELF1 expression level (UP IN GA AND REF ONLY) was 10.44 and the EP5TI1 expression level (UP IN GA AND REF ONLY) was 8.281. It also gave an ETS1 expression level (UP IN GA AND REF ONLY) of 7.811, an F830048D03RIK expression level (UP IN GA AND REF ONLY) of 6.799 and an FANCA expression level (UP IN GA AND REF ONLY) of 5.606. For the same substance, the FBXO33 expression level (UP IN GA AND REF ONLY) was 8.898, the FEM1C expression level (UP IN GA AND REF ONLY) was 8.076 and the FERD3L expression level (UP IN GA AND REF ONLY) was 5.887.
